Among the data in patent US12492186B2, “Bicyclic heterocyclic compounds useful as IRAK4 inhibitors” (BRISTOL-MYERS SQUIBB COMPANY, priority 2019, dated 2025) are IC50 and EC50 values, retold here.

In general, IC50 refers to the concentration that inhibits the measured activity by half. One may read the EC50 as the concentration that produces a half-maximal response.

One assay has as its target IRAK4 (Homo sapiens (Human), UniProt Q9NWZ3). The assay can be described thus: IRAK4 Inhibition Assay. The note with it: ATP 500 μM; IRAK4 0.6 nM; 60 min room temperature; Caliper LABCHIP 3000. The class given is biochemical.
Another assay relates to Human whole blood. Nature of the assay: IRAK4 Whole Blood Assay (IL-6 levels after stimulation with TLR2 agonist lipoteichoic acid). The note with it: 10 μg/mL lipoteichoic acid, 5 hours. The class given is cell-based. In short, it runs like this:
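ACD-A anticoagulated human whole blood preincubated with compound 60 min at 37 °C, 5% CO2, then stimulated 5 h with lipoteichoic acid at 10 μg/mL final. IL-6 in supernatants measured by flow cytometry bead assay.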

Chain of IRAK4 (Q9NWZ3 whole entry, species assumed): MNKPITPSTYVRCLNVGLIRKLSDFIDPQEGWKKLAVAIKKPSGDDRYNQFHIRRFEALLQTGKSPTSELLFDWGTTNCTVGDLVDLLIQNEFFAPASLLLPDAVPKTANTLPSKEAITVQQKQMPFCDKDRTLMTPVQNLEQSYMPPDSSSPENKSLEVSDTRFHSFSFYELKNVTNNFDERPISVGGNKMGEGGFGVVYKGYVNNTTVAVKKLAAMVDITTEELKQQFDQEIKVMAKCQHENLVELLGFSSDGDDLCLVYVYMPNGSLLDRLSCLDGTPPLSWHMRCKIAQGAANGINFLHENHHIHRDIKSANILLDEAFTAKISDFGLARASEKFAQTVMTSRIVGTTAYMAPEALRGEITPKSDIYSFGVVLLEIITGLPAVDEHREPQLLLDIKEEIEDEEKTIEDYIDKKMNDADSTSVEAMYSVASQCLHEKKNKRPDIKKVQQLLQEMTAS

Take `CC(=O)N1CCC(c2cc(-c3cnc4ccc(-c5cn[nH]c5)cc4c3NC(C)C)on2)CC1` [Example 127, 1-(4-(5-(4-(isopropylamino)-6-(1H-pyrazol-4-yl)quinolin-3-yl)isoxazol-3-yl)piperidin-1-yl)ethan-1-one]: on IRAK4, the IC50 amounted to 0.0067 µM. For the same molecule, it took 1.17 µM to reach a half-maximal effect in the assay on Human whole blood (EC50).

`CC(C)Nc1c(C(=O)NC2CCN(C(=O)C3CC3)CC2)cnc2ccc(-c3cn[nH]c3)cc12` [Example 81, N-(1-(cyclopropanecarbonyl)piperidin-4-yl)-4-(isopropylamino)-6-(1H-pyrazol-4-yl)quinoline-3-carboxamide]: the IC50 on IRAK4 was determined as 0.0117 µM. For the same molecule, the EC50 in the assay with Human whole blood amounted to 1.4 µM.

With `CC(C)Nc1c(C(=O)NC2CCN(S(C)(=O)=O)CC2)cnc2ccc(-c3cn[nH]c3)cc12` [Example 79, 4-(isopropylamino)-N-(1-(methylsulfonyl)piperidin-4-yl)-6-(1H-pyrazol-4-yl) quinoline-3-carboxamide], the IC50 on IRAK4 stood at 0.0057 µM. This molecule also gave an EC50 with Human whole blood of 0.618 µM.

Regarding `CC(C)Nc1c(-c2cn(CC3CC3)nn2)cnc2ccc(-c3cn[nH]c3)cc12` [Example 130, 3-(1-(cyclopropylmethyl)-1H-1,2,3-triazol-4-yl)-N-isopropyl-6-(1H-pyrazol-4-yl) quinolin-4-amine], the IC50 on IRAK4 was 0.006 µM. The molecule also came in with an EC50 in the assay on Human whole blood of 1.89 µM.

`CC(C)Nc1c(C(=O)NCCS(C)(=O)=O)cnc2ccc(-c3cn[nH]c3)cc12` [Example 88, 4-(isopropylamino)-N-(2-(methylsulfonyl)ethyl)-6-(1H-pyrazol-4-yl)quinoline-3-carboxamide]: on IRAK4, the IC50 was 0.0185 µM. The same molecule had an EC50 in the assay on Human whole blood of 1.52 µM.

As for `CC(C)Nc1c(C(=O)NCCN2CCOCC2)cnc2ccc(-c3cn[nH]c3)cc12` [Example 44, 4-(isopropylamino)-N-(2-morpholinoethyl)-6-(1H-pyrazol-4-yl)quinoline-3-carboxamide], the IC50 at IRAK4 turned out to be 0.0097 µM. The EC50 with Human whole blood worked out at 1.19 µM.

Regarding `CC(O)CCNC(=O)c1cnc2ccc(-c3cn[nH]c3)nc2c1NC(C)C` (stereo not drawn) [Example 140, N-(3-hydroxybutyl)-4-(isopropylamino)-6-(1H-pyrazol-4-yl)-1,5-naphthyridine-3-carboxamide], the IC50 on IRAK4 amounted to 0.0048 µM. In the assay with Human whole blood, this molecule gave an EC50 of 0.137 µM.

On to `CC(C)(O)[C@H](F)CNC(=O)c1cnc2ccc(-c3cn[nH]c3)cc2c1NC1COC1` [Example 34, (R)—N-(2-fluoro-3-hydroxy-3-methylbutyl)-4-(oxetan-3-ylamino)-6-(1H-pyrazol-4-yl)quinoline-3-carboxamide], for which the IC50 at IRAK4 turned out to be 0.0098 µM. Besides, in the assay on Human whole blood, the midpoint of the response, the EC50, lay at 0.544 µM.

With `CC(C)CCNC(=O)c1cnc2ccc(-c3cn[nH]c3)nc2c1NC(C)C` [Example 139, N-isopentyl-4-(isopropylamino)-6-(1H-pyrazol-4-yl)-1,5-naphthyridine-3-carboxamide], the IC50 on IRAK4 was 0.0027 µM. This molecule displayed an EC50 with Human whole blood of 0.272 µM.

For `CC(C)Nc1c(C(=O)NCC2CCS(=O)(=O)C2)cnc2ccc(-c3cn[nH]c3)cc12` (stereo not drawn) [Example 87, N-((1,1-dioxidotetrahydrothiophen-3-yl)methyl)-4-(isopropylamino)-6-(1H-pyrazol-4-yl)quinoline-3-carboxamide], at IRAK4, the IC50 was determined as 0.0068 µM. The EC50 in the assay with Human whole blood came to 0.458 µM.

With `CC(C)Nc1c(C(=O)NCCCNS(C)(=O)=O)cnc2ccc(-c3cn[nH]c3)cc12` [Example 95, 4-(isopropylamino)-N-(3-(methylsulfonamido)propyl)-6-(1H-pyrazol-4-yl)quinoline-3-carboxamide], the IC50 on IRAK4 was 0.0105 µM. The molecule further displayed an EC50 with Human whole blood of 3.22 µM.

Turning to `CC(C)Nc1c(C(=O)NC2CCN(Cc3ccncc3)CC2)cnc2ccc(-c3cn[nH]c3)cc12` [Example 78, 4-(isopropylamino)-6-(1H-pyrazol-4-yl)-N-(1-(pyridin-4-ylmethyl)piperidin-4-yl)quinoline-3-carboxamide], on IRAK4, the IC50 worked out at 0.0168 µM. Besides, the EC50 in the assay on Human whole blood is 1.36 µM.

Take `CC(C)Nc1c(C(=O)NCCC2CC2)cnc2ccc(-c3cn[nH]c3)cc12` [Example 51, N-(2-cyclopropylethyl)-4-(isopropylamino)-6-(1H-pyrazol-4-yl)quinoline-3-carboxamide]: on IRAK4, the IC50 was determined as 0.0045 µM. This molecule yielded an EC50 in the assay with Human whole blood of 0.699 µM.

Consider `CC(C)Nc1c(C(=O)NCCC(C)(C)N)cnc2ccc(-c3cn[nH]c3)nc12` [Example 150, N-(3-amino-3-methylbutyl)-4-(isopropylamino)-6-(1H-pyrazol-4-yl)-1,5-naphthyridine-3-carboxamide], for which the IC50 at IRAK4 stood at 0.0054 µM. The EC50 in the assay on Human whole blood is 0.153 µM.

`CC(=O)N[C@H]1CC[C@H](NC(=O)c2cnc3ccc(-c4cncs4)nc3c2NC(C)C)CC1` [Example 156, N-((1r,4r)-4-acetamidocyclohexyl)-4-(isopropylamino)-6-(thiazol-5-yl)-1,5-naphthyridine-3-carboxamide]: the IC50 at IRAK4 turned out to be 0.0043 µM. The EC50 in the assay with Human whole blood was found to be 0.662 µM.

With `CCOCCNC(=O)c1cnc2ccc(-c3cn[nH]c3)cc2c1NC(C)C` [Example 10, N-(2-ethoxyethyl)-4-(isopropylamino)-6-(1H-pyrazol-4-yl)quinoline-3-carboxamide], on IRAK4, the IC50 was 0.015 µM. Moreover, the EC50 in the assay on Human whole blood is 2.26 µM.

On to `CC(C)Nc1c(C(=O)NCc2nnc[nH]2)cnc2ccc(-c3cn[nH]c3)cc12` [Example 22, N-((4H-1,2,4-triazol-3-yl)methyl)-4-(isopropylamino)-6-(1H-pyrazol-4-yl)quinoline-3-carboxamide], for which, at IRAK4, the 50% inhibitory concentration (IC50) was 0.0075 µM. Further, the EC50 in the assay on Human whole blood was determined as 6.45 µM.

Regarding `CC(C)Nc1c(C(=O)NC2CCN(S(=O)(=O)c3cccnc3)CC2)cnc2ccc(-c3cn[nH]c3)cc12` [Example 84, 4-(isopropylamino)-6-(1H-pyrazol-4-yl)-N-(1-(pyridin-3-ylsulfonyl)piperidin-4-yl)quinoline-3-carboxamide], the IC50 on IRAK4 turned out to be 0.0171 µM. Besides, in the assay with Human whole blood, the EC50 was found to be 1.17 µM.

Take `CC(=O)N1CCC(NC(=O)c2cnc3ccc(-c4cn[nH]c4)cc3c2NC(C)C)CC1` [Example 77, N-(1-acetylpiperidin-4-yl)-4-(isopropylamino)-6-(1H-pyrazol-4-yl)quinoline-3-carboxamide]: the IC50 at IRAK4 came to 0.0099 µM. Moreover, in the assay with Human whole blood, it took 0.788 µM to reach a half-maximal effect (EC50).

Take `CC(C)Nc1c(C(=O)NC[C@@H](F)C(C)(C)O)cnc2ccc(-c3cncs3)cc12` [Example 7, (R)—N-(2-fluoro-3-hydroxy-3-methylbutyl)-4-(isopropylamino)-6-(thiazol-5-yl)quinoline-3-carboxamide]: on IRAK4, the IC50 is 0.0082 µM. In the assay on Human whole blood, this molecule had an EC50 of 5.71 µM.

`CC(C)Nc1c(C(=O)NCC2CCS(=O)(=O)CC2)cnc2ccc(-c3cn[nH]c3)cc12` [Example 107, N-((1,1-dioxidotetrahydro-2H-thiopyran-4-yl)methyl)-4-(isopropylamino)-6-(1H-pyrazol-4-yl)quinoline-3-carboxamide]: the IC50 at IRAK4 turned out to be 0.021 µM. Also, the EC50 with Human whole blood came out at 3.77 µM.

In the case of `CC(=O)N[C@H]1CC[C@H](NC(=O)c2cnc3ccc(-c4cn[nH]c4)nc3c2NC(C)C)CC1` [Example 155, N-((1r,4r)-4-acetamidocyclohexyl)-4-(isopropylamino)-6-(1H-pyrazol-4-yl)-1,5-naphthyridine-3-carboxamide], the IC50 on IRAK4 is 0.0033 µM. Further, in the assay with Human whole blood, the EC50 was found to be 0.502 µM.

As for `CC(C)Nc1c(C(=O)NC[C@@H](F)C(C)(C)O)cnc2ccc(-c3cn[nH]c3)nc12` [Example 141, (R)—N-(2-fluoro-3-hydroxy-3-methylbutyl)-4-(isopropylamino)-6-(1H-pyrazol-4-yl)-1,5-naphthyridine-3-carboxamide], the IC50 at IRAK4 was found to be 0.0014 µM. This molecule returned an EC50 in the assay on Human whole blood of 0.04 µM.

As to `CC(C)Nc1c(C(=O)NCc2cnco2)cnc2ccc(-c3cn[nH]c3)cc12` [Example 14, 4-(isopropylamino)-N-(oxazol-5-ylmethyl)-6-(1H-pyrazol-4-yl)quinoline-3-carboxamide], the IC50 on IRAK4 turned out to be 0.0141 µM. In addition, the EC50 with Human whole blood was found to be 0.868 µM.
